This is an account of results in PMC4734386 (The Journal of organic chemistry, 2015).

As a reminder, the pIC50 is −log10 of the IC50, conventionally taken in molar units. A lower pIC50 goes with a large IC50.

The experiment deals with porcine pancreatic elastase (PPE) (Sus scrofa, UniProt P00772). Put plainly: PPE enzyme assay. Type of experiment: biochemical.

pIC50: −log10 of the molar value.

Chain of porcine pancreatic elastase (PPE) (P00772 27-266): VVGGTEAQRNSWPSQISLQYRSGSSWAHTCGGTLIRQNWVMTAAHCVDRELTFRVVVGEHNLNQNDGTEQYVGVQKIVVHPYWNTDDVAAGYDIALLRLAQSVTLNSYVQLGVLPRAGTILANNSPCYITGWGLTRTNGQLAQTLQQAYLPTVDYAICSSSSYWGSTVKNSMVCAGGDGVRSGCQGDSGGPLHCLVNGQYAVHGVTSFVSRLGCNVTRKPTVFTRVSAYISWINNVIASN

As for `CC(C)(C)C(=O)Oc1ccc(S(=O)(=O)Nc2ccccc2C(=O)NCC(=O)O)cc1` [sivelestat], the negative logarithm of the IC50 (pIC50) was 5.51.
